Test results reported in ChEMBL document CHEMBL1201862, “PubChem BioAssay data set” (2004).
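Assay format: 96-well plates, 48-hour exposure. Abbreviation: GI50, concentration required for 50% inhibition of growth.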 Active and inactive are the calls of the source. Rule as the data show it: active = GI50 up to about 1.1 µM and inactive = higher.

Legend:
Assay in all cases: NCI-60 cell line screen, 48 h
BT-549 = tested on: BT-549
CAKI-1 = tested on: CAKI-1
DU-145 = tested on: DU-145
EKVX = tested on: EKVX
HCT-116 = tested on: HCT-116
HCT-15 = tested on: HCT-15
HT-29 = tested on: HT-29
LOX IMVI = tested on: LOX IMVI
MDA-MB-231 = tested on: MDA-MB-231
MDA-MB-435 = tested on: MDA-MB-435
NCI-H23 = tested on: NCI-H23
NCI/ADR-RES = tested on: NCI/ADR-RES
OVCAR-3 = tested on: OVCAR-3
OVCAR-5 = tested on: OVCAR-5
OVCAR-8 = tested on: OVCAR-8
SK-OV-3 = tested on: SK-OV-3
SNB-75 = tested on: SNB-75
T47D = tested on: T47D
TK-10 = tested on: TK-10
HOP-92 = tested on: HOP-92

SMILES	GI50 (BT-549)	GI50 (CAKI-1)	GI50 (DU-145)	GI50 (EKVX)	GI50 (HCT-116)	GI50 (HCT-15)	GI50 (HT-29)	GI50 (LOX IMVI)	GI50 (MDA-MB-231)	GI50 (MDA-MB-435)	GI50 (NCI-H23)	GI50 (NCI/ADR-RES)	GI50 (OVCAR-3)	GI50 (OVCAR-5)	GI50 (OVCAR-8)	GI50 (SK-OV-3)	GI50 (SNB-75)	GI50 (T47D)	GI50 (TK-10)	GI50 (HOP-92)
O=C(NNC(=S)NC1CCCCC1)c1csc(NC(=S)NC2CCCCC2)n1	2.9 µM (inactive)	7.23 µM (inactive)	14.9 µM (inactive)	> 100 µM (inactive)	4.27 µM (inactive)	0.463 µM	> 100 µM (inactive)	4.9 µM (inactive)	17.8 µM (inactive)	10.8 µM (inactive)	10.4 µM (inactive)	2.74 µM (inactive)	4.04 µM (inactive)	12.8 µM (inactive)	2.25 µM (inactive)	11.7 µM (inactive)	> 10 µM (inactive)	13.1 µM (inactive)	6.38 µM (inactive)	
C(=N\c1ccc(-c2nc3ccccc3s2)cc1)/c1cccs1	56.2 µM (inactive)	38.5 µM (inactive)	69.8 µM (inactive)	45.2 µM (inactive)	52.1 µM (inactive)	40.6 µM	52.4 µM (inactive)	46.1 µM (inactive)		41.9 µM (inactive)	54.3 µM (inactive)	43.3 µM (inactive)	42.5 µM (inactive)	89.1 µM (inactive)	49.2 µM (inactive)	81.8 µM (inactive)	29.9 µM (inactive)	22.8 µM (inactive)	30.5 µM (inactive)	28.4 µM (inactive)
C(/C=N/N=C1NCCN1)=N\N=C1NCCN1	> 100 µM (inactive)	> 100 µM (inactive)		> 100 µM (inactive)	> 100 µM (inactive)	> 100 µM	> 100 µM (inactive)	> 100 µM (inactive)	> 100 µM (inactive)	> 100 µM (inactive)	> 100 µM (inactive)	> 100 µM (inactive)	> 100 µM (inactive)	> 100 µM (inactive)	> 100 µM (inactive)	> 100 µM (inactive)	47.3 µM (inactive)	> 100 µM (inactive)		> 100 µM (inactive)
CC(=O)OCC1C(C(C)OC(C)=O)CCC2C1CCC1(C)C(OC(C)=O)CCC21 (centres undefined)	11.6 µM (inactive)	37.4 µM (inactive)	83.9 µM (inactive)	15.6 µM (inactive)	15.8 µM (inactive)	19.7 µM	16 µM (inactive)	14.7 µM (inactive)	15.6 µM (inactive)	18.7 µM (inactive)	24.1 µM (inactive)	17 µM (inactive)	20.5 µM (inactive)	54.6 µM (inactive)	19.7 µM (inactive)			24.8 µM (inactive)	> 100 µM (inactive)	17.9 µM (inactive)
CC(=O)Oc1ccc2cc(Oc3ccc(Cl)c(Cl)c3)c(=O)oc2c1	12.6 µM (inactive)	20.3 µM (inactive)	39.3 µM (inactive)	24 µM (inactive)	18.5 µM (inactive)	14.6 µM	35.5 µM (inactive)	19.7 µM (inactive)	27 µM (inactive)		35.6 µM (inactive)		22.9 µM (inactive)	72.6 µM (inactive)	32 µM (inactive)		22 µM (inactive)	11.5 µM (inactive)	17.9 µM (inactive)	20.3 µM (inactive)
O=C(Nc1cccc(F)c1)c1cc2ccc(O)cc2o/c1=N\c1ccccc1F	2.13 µM (inactive)	4.39 µM (inactive)	4.28 µM (inactive)	2.18 µM (inactive)	4.03 µM (inactive)	2.88 µM	21.2 µM (inactive)	2.96 µM (inactive)		3.89 µM (inactive)	2.18 µM (inactive)	2.9 µM (inactive)	3.81 µM (inactive)	17.2 µM (inactive)	2.51 µM (inactive)	5.36 µM (inactive)		3.38 µM (inactive)		
C/C(=C\CO)CC/C=C(\C)CNc1ccccc1	18.6 µM (inactive)	57.5 µM (inactive)	37.8 µM (inactive)	23.9 µM (inactive)	54.5 µM (inactive)	67.8 µM	19.4 µM (inactive)	57.7 µM (inactive)	34.8 µM (inactive)	36.1 µM (inactive)	< 0.01 µM (active)	40.4 µM (inactive)	18.2 µM (inactive)	> 100 µM (inactive)	82.8 µM (inactive)	> 100 µM (inactive)	0.0498 µM (active)	14.7 µM (inactive)	20.5 µM (inactive)	
COc1ccc2c(=O)c(-c3cc(OC)c(OC)cc3OC)coc2c1	> 100 µM (inactive)	3.01 µM (inactive)	2.86 µM (inactive)	36.1 µM (inactive)	2.28 µM (inactive)	1.24 µM	2.35 µM (inactive)	5.51 µM (inactive)	> 100 µM (inactive)		8.67 µM (inactive)		1.84 µM (inactive)	> 100 µM (inactive)	9.73 µM (inactive)	3.02 µM (inactive)	2.26 µM (inactive)	6.7 µM (inactive)	31.5 µM (inactive)	1.81 µM (inactive)
